Where two headings read alike, the source gives them in different places. Marks after values point to notes of the source that are not given here.
Tested on: mouse adapted strain of the A2/HK/l/68 virus
Conditions: 10^-4 mole/kg doses twice daily for 3 days; for Weight Change Day 0 -Day 3: dosing period, indication of toxicity

| Molecule | Day 8 Means Body Wt. (Expt. 1, subcutaneous) | Day 8 Means Lung WT./ Body Wt. Ratio x 100 (Expt. 1, subcutaneous) | Day 8 Means Lung Wt. (Expt. 1, subcutaneous) | Weight Change Day 3 -Day 8 (Expt. 1, subcutaneous) | Weight Change Day 0 -Day 3 (Expt. 1, subcutaneous) | Day 8 Means Body Wt. (Expt. 2, subcutaneous) | Day 8 Means Lung WT./ Body Wt. Ratio x 100 (Expt. 2, subcutaneous) | Day 8 Means Lung Wt. (Expt. 2, subcutaneous) | Weight Change Day 3 -Day 8 (Expt. 2, subcutaneous) | Weight Change Day 0 -Day 3 (Expt. 2, subcutaneous) | Day 8 Means Body Wt. (Expt. 3, oral) | Day 8 Means Lung WT./ Body Wt. Ratio x 100 (Expt. 3, oral) | Day 8 Means Lung Wt. (Expt. 3, oral) | Weight Change Day 3 -Day 8 (Expt. 3, oral) | Weight Change Day 0 -Day 3 (Expt. 3, oral) |
| --- | --- | --- | --- | --- | --- | --- | --- | --- | --- | --- | --- | --- | --- | --- | --- |
| 1-[β-D-(5'-succinyl-2',3'-carbonyl)ribofuranosyl]-3-carbamoyl-1,2,4-triazole amantadine salt [Compound 6] | 22.4 gm | 1.25 | 273 mg | +0.9 | +2.4 | 21.2 gm | 1.30** | 266 mg | +0.4 | +2.1 | 22.5 gm | 1.25** | 275 mg | +0.7 | +2.6 |
| NC(=O)c1ncn([C@@H]2O[C@H](CO)[C@@H](O)[C@H]2O)n1 [Compound 1, 1-β-D-ribofuranosyl-3-carbamoyl-1,2,4-triazole, reference compound] | 20.7 gm | 1.16 | 238 mg | +0.8 | +0.7* | 20.5 gm | 1.36 | 291 mg | +1.8 | +0.2* | 19.1 gm | 1.40** | 285 mg | -0.8 | +0.9* |
